Patent US20230372481A1 (priority 2020, published 2023)

How the values were obtained:
[1] = tested on: PBMCs of COVID-19 convalescent donors; assay: Secretion of IFNγ in the presence of dexamethasone with peptivators for SARS-COV-2; type: cell-based, human; settings: three SARS-CoV-2 peptides
Procedure: Then they were mixed with PepTivators for SARS-CoV2 (Miltenyi Biotec. PepTivator Prot_M, Ref. 130-126-702; PepTivator Prot_N, Ref. 130-126-698 & PepTivator Prot_S, Ref. 130-126-700. Final concentration of 0.6 nmol/ml) for 5 hours at 37° C.; then IFNγ production of T cells were measured as before using the Miltenyi Biotec IFNg Detection Kit, Ref: 130-054-202. In all cases there was a basal condition, without peptivators and the cells where previously incubated with mouse Anti-Human CD3 (Clone OKT3; BD Biosciences, Ref:
566685; final concentration of 2.8 μg/ml and CD28/CD49d Purified (Clone L293 L25 RUO GMP) (BD Biosciences. Ref. 347690; final concentration 5 μg/ml). Cell acquisition was performed using a Navios cytometer (Beckman Coulter), acquiring an average of 200,000 cells. The analysis was made using FlowJo 10.7.1 (FlowJoLLC). N=3, mean of the results was performed.

[2] = tested on: PBMCs of COVID-19 convalescent donors; assay: Proliferation assay with CFSE in the presence of dexamethasone; type: cell-based, human; settings: dexamethasone 10-7-10-6 M
Procedure: Around 2 million cells where incubated in a P24 plaque in 1 ml of supplemented medium with 1.5% v/v PHA (Phytohemagglutinin M form. Ref. 10576015), Mouse Anti-Human CD3 (Clone OKT3; BD Biosciences, Ref: 566685; final concentration of 0.05 μg/ml) and CD28/CD49d Purified (Clone L293 L25 RUO GMP) (BD Biosciences. Ref. 347690; final concentration 5 μg/ml).
The cells where incubated at 37° C. for 3 days and finally a CFSE proliferation assay (CellTrace™ CFSE Cell Proliferation Kit, Invitrogen, Ref.) was performed to determine if high doses of the drug decrease the division index of the cells. The cells were stained with CFSE and the different cell surface antibodies. Then, cell acquisition was performed using a Navios cytometer (Beckman Coulter), acquiring an average of 200,000 cells. The analysis was made using FlowJo 10.7.1 (FlowJoLLC). N=4 mean of the results was performed.

[3] = DEX 10^-7M, 72 hours (D3), listed as dexamethasone

With `C[C@@H]1C[C@H]2[C@@H]3CCC4=CC(=O)C=C[C@]4(C)[C@@]3(F)[C@@H](O)C[C@]2(C)[C@@]1(O)C(=O)CO` [DEX, dexamethasone] the “Percentage of IFNg, CD45RA+” value ([1]; DEX 10^-6M, 24 hours (D1)) was 0.00%, the “Percentage of IFNg, CD45RA+CD3+” value ([1]; DEX 10^-6M, 24 hours (D1)) was 0.00% and the “Percentage of IFNg, CD45RA+CD3+CD4+” value ([1]; DEX 10^-6M, 24 hours (D1)) was 0.32%. The “Percentage of IFNg, CD45RA+CD3+CD8+” value ([1]; DEX 10^-6M, 24 hours (D1)) was 0.00%, the “Percentage of IFNg, CD45RA−” value ([1]; DEX 10^-6M, 24 hours (D1)) was 2.0% and the “Percentage of IFNg, CD45RA− CD3+” value ([1]; DEX 10^-6M, 24 hours (D1)) was 0.7%. For the same molecule, the “Percentage of IFNg, CD45RA− CD3+CD4+” value ([1]; DEX 10^-6M, 24 hours (D1)) was 1.1%, the “Percentage of IFNg, CD45RA− CD3+CD8+” value ([1]; DEX 10^-6M, 24 hours (D1)) was 0.1% and the “Percentage of IFNg, CD45RA+” value ([1]; DEX 10^-6M, 72 hours (D3)) was 0.61%. The “Percentage of IFNg, CD45RA+CD3+” value ([1]; DEX 10^-6M, 72 hours (D3)) was 1.06%, the “Percentage of IFNg, CD45RA+CD3+CD4+” value ([1]; DEX 10^-6M, 72 hours (D3)) was 1.43% and the “Percentage of IFNg, CD45RA+CD3+CD8+” value ([1]; DEX 10^-6M, 72 hours (D3)) was 1.29%. For the same molecule, the “Percentage of IFNg, CD45RA−” value ([1]; DEX 10^-6M, 72 hours (D3)) was 2.68%, the “Percentage of IFNg, CD45RA− CD3+” value ([1]; DEX 10^-6M, 72 hours (D3)) was 3.27% and the “Percentage of IFNg, CD45RA− CD3+CD4+” value ([1]; DEX 10^-6M, 72 hours (D3)) was 3.04%. The “Percentage of IFNg, CD45RA− CD3+CD8+” value ([1]; DEX 10^-6M, 72 hours (D3)) was 4.50%, the “Percentage of IFNg, CD45RA+” value ([1]; DEX 10^-7M, 24 hours (D1)) was 0.27% and the “Percentage of IFNg, CD45RA+CD3+” value ([1]; DEX 10^-7M, 24 hours (D1)) was 0.40%. The “Percentage of IFNg, CD45RA+CD3+CD4+” value ([1]; DEX 10^-7M, 24 hours (D1)) was 0.11%, the “Percentage of IFNg, CD45RA+CD3+CD8+” value ([1]; DEX 10^-7M, 24 hours (D1)) was 1.77% and the “Percentage of IFNg, CD45RA−” value ([1]; DEX 10^-7M, 24 hours (D1)) was 5.9%. The “Percentage of IFNg, CD45RA− CD3+” value ([1]; DEX 10^-7M, 24 hours (D1)) was 1.7%, the “Percentage of IFNg, CD45RA− CD3+CD4+” value ([1]; DEX 10^-7M, 24 hours (D1)) was 2.4% and the “Percentage of IFNg, CD45RA− CD3+CD8+” value ([1]; DEX 10^-7M, 24 hours (D1)) was 2.6%. For the same molecule, the “Percentage of IFNg, CD45RA+” value ([1]; DEX 10^-7M, 72 hours (D3)) was 2.08%, the “Percentage of IFNg, CD45RA+CD3+” value ([1]; DEX 10^-7M, 72 hours (D3)) was 5.12% and the “Percentage of IFNg, CD45RA+CD3+CD4+” value ([1]; DEX 10^-7M, 72 hours (D3)) was 3.29%. For the same molecule, the “Percentage of IFNg, CD45RA+CD3+CD8+” value ([1]; DEX 10^-7M, 72 hours (D3)) was 3.91%, the “Percentage of IFNg, CD45RA−” value ([1]; DEX 10^-7M, 72 hours (D3)) was 7.21% and the “Percentage of IFNg, CD45RA− CD3+” value ([1]; DEX 10^-7M, 72 hours (D3)) was 8.03%. For the same molecule, the “Percentage of IFNg, CD45RA− CD3+CD4+” value ([1]; DEX 10^-7M, 72 hours (D3)) was 7.06%, the “Percentage of IFNg, CD45RA− CD3+CD8+” value ([1]; DEX 10^-7M, 72 hours (D3)) was 8.67% and the “Percentage of IFNg, CD45RA−” value [1, 3] was 2.08%. The “Percentage of IFNg, CD45RA− CD3+” value [1, 3] was 5.12%, the “Percentage of IFNg, CD45RA− CD3+CD4+” value [1, 3] was 3.29% and the “Percentage of IFNg, CD45RA− CD3+CD8+” value [1, 3] was 3.91%. For the same molecule, the “Reduction of proliferation within the CD45RA− memory T cells” value [2] was 0-5%.
